Results published in patent US10131652B2, “Pyrimidinyloxy benzene derivatives as herbicides” (E. I. DU PONT DE NEMOURS AND COMPANY, priority 2014, dated 2018).

How the values were obtained:
Assay type in all cases: in vivo
rice (Oryza sativa) = experiment: Test C flooded paddy test plant response; settings: Flood, 250 g ai/ha; scale of 0 to 100 where 0 is no effect and 100 is complete control; 13 to 15 days
Summary of the method: (§1)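 Visual injury ratings (0, no effect; 100, complete control) were assigned after 13 to 15 days in a greenhouse, comparing treated plants with controls. Compounds had been added straight into paddy water over 2-leaf-stage plants flooded to 3 cm.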

[1] = system: ducksalad (Heteranthera limosa); experiment: Test C flooded paddy test plant response; settings: Flood, 250 g ai/ha; scale of 0 to 100 where 0 is no effect and 100 is complete control; 13 to 15 days
Summary of the method: as §1

[2] = system: barnyardgrass (Echinochloa crus-galli); experiment: Test C flooded paddy test plant response; settings: Flood, 250 g ai/ha; scale of 0 to 100 where 0 is no effect and 100 is complete control; 13 to 15 days
Summary of the method: as §1

[3] = system: small-flower umbrella sedge (Cyperus difformis); experiment: Test C flooded paddy test plant response; settings: Flood, 250 g ai/ha; scale of 0 to 100 where 0 is no effect and 100 is complete control; 13 to 15 days
Summary of the method: as §1

[4] = system: giant foxtail (Setaria faberii); experiment: Test B pre-/postemergence plant response; settings: for Foxtail, Giant plant response rating: 0 to 100 scale (0 no effect, 100 complete control)
Summary of the method: (§2)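 Ratings reflect visual injury versus untreated controls, from 0 for no effect to 100 for complete control, assessed roughly 10 days after treatment. Formulation: non-phytotoxic solvent mix with surfactant; pre- and postemergence sprays on plants grown in loam soil and sand.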

[5] = system: large (Lg) crabgrass (Digitaria sanguinalis); experiment: Test B pre-/postemergence plant response; settings: for Crabgrass, Large plant response rating: 0 to 100 scale (0 no effect, 100 complete control)
Summary of the method: as §2

[6] = system: morningglory (Ipomoea spp.); experiment: Test B pre-/postemergence plant response; settings: for Morningglory plant response rating: 0 to 100 scale (0 no effect, 100 complete control)
Summary of the method: as §2

[7] = system: barnyardgrass (Echinochloa crus-galli); experiment: Test B pre-/postemergence plant response; settings: for Barnyardgrass plant response rating: 0 to 100 scale (0 no effect, 100 complete control)
Summary of the method: as §2

[8] = system: pigweed (Amaranthus retroflexus); experiment: Test B pre-/postemergence plant response; settings: for Pigweed plant response rating: 0 to 100 scale (0 no effect, 100 complete control)
Summary of the method: as §2

[9] = system: wheat (Triticum aestivum); experiment: Test B pre-/postemergence plant response; settings: for Wheat plant response rating: 0 to 100 scale (0 no effect, 100 complete control)
Summary of the method: as §2

[10] = system: velvetleaf (Abutilon theophrasti); experiment: Test B pre-/postemergence plant response; settings: for Velvetleaf plant response rating: 0 to 100 scale (0 no effect, 100 complete control)
Summary of the method: as §2

corn (Zea mays) = experiment: Test B pre-/postemergence plant response; settings: for Corn plant response rating: 0 to 100 scale (0 no effect, 100 complete control)
Summary of the method: as §2

[11] = 125 g ai/ha, postemergence, 0 to 100 scale, 0 no effect, 100 complete control
[12] = 500 g ai/ha, postemergence, 0 to 100 scale, 0 no effect, 100 complete control
[13] = Preemergence, 500 g ai/ha, 0 to 100 scale where 0 is no effect and 100 is complete control

Structure (SMILES) | Rice plant response rating (rice (Oryza sativa)) | Ducksalad plant response rating [1] | Barnyardgrass plant response rating [2] | Sedge, Umbrella plant response rating [3] | Plant response rating, Foxtail, Giant [4, 11] | Plant response rating, Foxtail, Giant [4, 12] | Foxtail, Giant plant response rating ([4]; Preemergence, 125 g ai/ha) | Plant response rating, Foxtail, Giant [4, 13] | Plant response rating, Crabgrass, Large [5, 11] | Plant response rating, Crabgrass, Large [5, 12] | Crabgrass, Large plant response rating ([5]; Preemergence, 125 g ai/ha) | Plant response rating, Crabgrass, Large [5, 13] | Plant response rating, Morningglory [6, 11] | Plant response rating, Morningglory [6, 12] | Morningglory plant response rating ([6]; Preemergence, 125 g ai/ha) | Plant response rating, Morningglory [6, 13] | Plant response rating, Barnyardgrass [7, 11] | Plant response rating, Barnyardgrass [7, 12] | Barnyardgrass plant response rating ([7]; Preemergence, 125 g ai/ha) | Plant response rating, Barnyardgrass [7, 13] | other results
N#Cc1cccc(Oc2ncc(F)cn2)c1-c1ccc(Cl)cn1 [Compound 207] | 0 | 30 | 0 | 30 | 0 | 30 | 70 | 100 | 0 | 30 | 100 | 100 | 10 | 30 | 0 | 30 | 0 | 70 | 10 | 90 | Plant response rating, Pigweed [8, 11]: 70; Plant response rating, Pigweed [8, 12]: 100; Pigweed plant response rating ([8]; Preemergence, 125 g ai/ha): 90; Plant response rating, Pigweed [8, 13]: 100; Plant response rating, Wheat [9, 11]: 0; Plant response rating, Wheat [9, 12]: 0; Wheat plant response rating ([9]; Preemergence, 125 g ai/ha): 0; Plant response rating, Wheat [9, 13]: 0; Plant response rating, Velvetleaf [10, 11]: 10; Plant response rating, Velvetleaf [10, 12]: 60; Velvetleaf plant response rating ([10]; Preemergence, 125 g ai/ha): 0; Plant response rating, Velvetleaf [10, 13]: 30; Plant response rating, Corn (corn (Zea mays); [11]): 0; Plant response rating, Corn (corn (Zea mays); [12]): 0; Corn plant response rating (corn (Zea mays); Preemergence, 125 g ai/ha): 0; Plant response rating, Corn (corn (Zea mays); [13]): 0
N#Cc1cccc(-n2cc(Br)cn2)c1Oc1ncc(Cl)cn1 [Compound 209] | 0 | 0 | 0 | 0 | 0 | 30 | 30 | 100 | 10 | 30 | 70 | 100 | 30 | 30 | 0 | 0 | 0 | 0 | 0 | 10 | Plant response rating, Pigweed [8, 11]: 90; Plant response rating, Pigweed [8, 12]: 100; Pigweed plant response rating ([8]; Preemergence, 125 g ai/ha): 90; Plant response rating, Pigweed [8, 13]: 100; Plant response rating, Wheat [9, 11]: 0; Plant response rating, Wheat [9, 12]: 0; Wheat plant response rating ([9]; Preemergence, 125 g ai/ha): 0; Plant response rating, Wheat [9, 13]: 0; Plant response rating, Velvetleaf [10, 11]: 30; Plant response rating, Velvetleaf [10, 12]: 30; Velvetleaf plant response rating ([10]; Preemergence, 125 g ai/ha): 0; Plant response rating, Velvetleaf [10, 13]: 0; Plant response rating, Corn (corn (Zea mays); [11]): 0; Plant response rating, Corn (corn (Zea mays); [12]): 0; Corn plant response rating (corn (Zea mays); Preemergence, 125 g ai/ha): 0; Plant response rating, Corn (corn (Zea mays); [13]): 0
